Reference: patent US9958436B2, “Determination of cell chirality” (THE TRUSTEES OF COLUMBIA UNIVERSITY IN THE CITY OF NEW YORK, priority 2011, dated 2018)
Entries after “also recorded” stand apart in the source; their conditions may differ.

Experiments:
C2C12 cells [1] = test: Cell polarization by organelle positioning relative to ring boundaries (immunofluorescence); assay type: cell-based, mouse; settings: C2C12 on rings; centrosome vs nucleus position
Description: After imaging, cells were fixed with 4% formaldehyde in cytoskeletal buffer (10 mM MES, 138 mM KCl, 3 mM MgCl2, 2 mM EGTA, and 0.32 M sucrose) for 25 minutes. For actin/tubulin double staining, the cells were incubated with phalloidin-TRITC (1:400; Invitrogen) and anti-Tubulin-FITC (1:50; Sigma) for 1 hour. For the Golgi apparatus positioning inside patterned rings, the cells were incubated in 1 μg/ml anti-human golgin-97 (Invitrogen) for 1 hour. After secondary antibodies, cell nuclei were stained with 200 ng/ml 40, 6-diamidino-2-phenylindole (DAPI; Sigma) for 10 minutes. Finally, the cells were mounted with Fluoromount-G medium (SouthernBiotech, Birmingham, Ala.).

hUVEC cells = test: Cell chirality (alignment) on micropatterned rings, drug treatment, hUVEC; assay type: cell-based, human; settings: hUVEC on ring patterns, count of rings
Description: (§1) Cells were maintained in tissue flasks with culture media specified in TABLE 2. After reaching 70% confluency, cells were trypsinized and seeded onto protein-coated patterned surfaces. Once the cells attached, extra cells were washed off with fresh medium. At this time drugs were added into the culture medium if necessary. Phase contrast images were taken after overnight incubation at 37° C. and 5% CO2 when cells reached confluency on the ring patterns.
(§2) To examine the role of actin in left-right (LR) asymmetry, cells were tested with 20-500 nM Latrunculin A, 0.05-1.0 μg/ml Cytochalasin D, and 1-100 nM Jasplakinolide. Latrunculin A inhibits actin polymerization by forming a 1:1 molar complex with G-actin, thereby inhibiting its ability to polymerize into F-actin (M. Coue, S. L. Brenner, I. Spector, E. D. Korn, FEBS Lett 213, 316 (Mar. 23, 1987)). Cytochalasin D inhibits actin polymerization by binding to the growing ends of F-actin chains and thus preventing the attachment and addition of G-actin monomers (J. A. Cooper, J Cell Biol 105, 1473 (October, 1987)). Jasplakinolide is known to bind to and stabilize actin filaments in vitro (M. R. Bubb, I. Spector, B. B. Beyer, K. M. Fosen, J Biol Chem 275, 5163 (Feb. 18, 2000)).
(§3) To examine the role of microtubules in LR asymmetry, 0.2-2 μM Nocodazole, and 0.3-30 nM Taxol were used. Nocodazole suppresses microtubule dynamics by destabilizing and disassembling microtubules (J. A. Cooper, J Cell Biol 105, 1473 (October, 1987)). Taxol inhibits the microtubule depolymerization and stabilizes microtubules (W. B. Derry, L. Wilson, M. A. Jordan, Biochemistry 34, 2203 (Feb. 21, 1995)).
(§4) High-resolution phase contrast images of live patterned cells were taken at a resolution of ˜0.645 μm/pixel, and analyzed using a custom-written code in MatLab (MathWorks, Natick, Mass.), based on the automated detection of intensity gradient and circular statistics (W. J. Karlon et al., Ann Biomed Eng 27, 712 (November-December, 1999)). In this algorithm, the intensity gradient was determined pixel by pixel with a Gaussian differential filter. In each sub-region of the image, the dominant local direction was determined using an accumulator scheme, in which the orientation of each pixel follows a von Mises distribution, a circular analogue of the linear normal distribution. Subsequently, the orientation in each sub-region was converted into an angle bias based on its deviation from the circumferential direction (see e.g., FIG. 2C). Mean angle and standard deviation of LR asymmetry were calculated for all sub-regions, using circular statistics (N. I. Fish, Statistical Analysis of Circular Data. (Cambridge University Press, Cambridge, UK, 1993)). […] The sub-region size was therefore set to 20 by 20 pixels (i.e., 13 by 13 μm).
(§5) Cell chirality on ring patterns (i.e., clockwise or counterclockwise alignment) was determined from calculated biased angles in local regions with one sample test for the mean angle, analogous to the one sample t-test in linear statistics (N. I. Fish, Statistical Analysis of Circular Data. (Cambridge University Press, Cambridge, UK, 1993)).

skin tumor cancer cells = test: Cell chirality on patterned substrates, skin tumor cancer cells, actin interfering reagent; assay type: cell-based, human; settings: count of patterns
Description: as §4, §5
Experiments were conducted to determine whether cancer cell chirality depends on actin function. Skin cancer cells were treated with actin interfering reagent Lantrunculin A at 0 nM (control), 20 nM, 50 nM, 100 nM, or 200 nM.

C2C12 cells [2] = test: Analysis of cell migration on ring patterns (time-lapse, digital image correlation); assay type: cell-based, mouse; settings: C2C12 treated
Description: For time-lapse videos, cells were patterned on a gold-coated glass-bottom Petri dish (ibid, München, Germany). After cells attached, the dish was transferred into an environmental chamber (37° C. and 5% CO2) and image time series were recorded every 5 minutes at a resolution of 1.56 μm/pixel for a total time of 20-40 hours. As the image capture rate is much higher than the characteristic time for cell migration, digital image correlation, together with sub-pixel displacement estimation, were used to determine the displacements of cell migration. A FFT (fast Fourier transform)-based method was first utilized to match regions of two sequential phase contrast images. The calculated displacement values were then used as inputs for a more accurate estimation of displacement fields at a sub-pixel level, using a second-order image correlation algorithm described previously (P. Zhou, K. E. Goodson, Opt Eng 40, 1613 (August, 2001)). To evaluate the bias of cell migration, the obtained velocity field was further projected in the circumferential (Vθ) and radial (Vr) direction.

C2C12 cells [3] = test: Cell chirality (alignment) on micropatterned rings, drug treatment, C2C12; assay type: cell-based, mouse; settings: for CCW: counter-clockwise alignment / CW: clockwise alignment / N/S: not significantly biased to CW or CCW: C2C12 on ring patterns, count of rings
Description: as §1, §2, §3
To examine the role of the actomyosin motor, cells were tested with […], […], and 0.5-10 […]. Y-27632 works as a selective inhibitor to prevent the phosphorylation of the myosin regulatory light chain (T. Ishizaki et al., Mol Pharmacol 57, 976 (May, 2000)). ML-7 acts as a selective inhibitor of the myosin light chain kinase (M. Isemura, T. Mita, K. Satoh, K. Narumi, M. Motomiya, Cell Biol Int Rep 15, 965 (October, 1991)). Blebbistatin forms a low actin affinity complex through binding to myosin heads, causing the inhibition of nonmuscle myosin II ATPase activity (M. Kovacs, J. Toth, C. Hetenyi, A. Malnasi-Csizmadia, J. R. Sellers, J Biol Chem 279, 35557 (Aug. 20, 2004)).
as §4, §5

## C/C1=C/C(=O)O[C@@H]2C[C@@H](CC[C@H](C)/C=C\C=C\CC1)O[C@@](O)([C@@H]1CSC(=O)N1)C2 [Latrunculin A]
C2C12 cells [1]
  effect on cell polarization (organelle positioning relative to boundaries): did not alter cell polarization; also recorded: does not change the polarity of C2C12 cells
hUVEC cells; drug 20 nM
  CCW: counter-clockwise alignment: 0
  CW: clockwise alignment: 36
  N/S: not significantly biased to CW or CCW: 8
hUVEC cells; drug 50 nM
  CCW: counter-clockwise alignment: 0
  CW: clockwise alignment: 2
  N/S: not significantly biased to CW or CCW: 19
hUVEC cells; drug 200 nM
  CCW: counter-clockwise alignment: 5
  CW: clockwise alignment: 2
  N/S: not significantly biased to CW or CCW: 56
hUVEC cells; drug 500 nM
  CCW: counter-clockwise alignment: 1
  CW: clockwise alignment: 2
  N/S: not significantly biased to CW or CCW: 42
Skin tumor cancer cells; 20 nM
  CCW: counter-clockwise alignment: 0
  CW: clockwise alignment: 21
  N/S: not significantly biased to CW or CCW: 4
Skin tumor cancer cells; 50 nM
  CCW: counter-clockwise alignment: 1
  CW: clockwise alignment: 28
  N/S: not significantly biased to CW or CCW: 2
Skin tumor cancer cells; 100 nM
  CCW: counter-clockwise alignment: 0
  CW: clockwise alignment: 32
  N/S: not significantly biased to CW or CCW: 0
Skin tumor cancer cells; 200 nM
  CCW: counter-clockwise alignment: 2
  CW: clockwise alignment: 8
  N/S: not significantly biased to CW or CCW: 3
C2C12 cells [2]; versus untreated
  direction of cell migration at the boundaries: reversal at the boundaries
C2C12 cells [2]; CW along the outer ring and CCW along the inner ring
  cell migration velocity at the ring boundaries: 15 μm/hr
C2C12 cells [3]; drug 50 nM
  CCW: counter-clockwise alignment: 2
  CW: clockwise alignment: 61
  N/S: not significantly biased to CW or CCW: 15
C2C12 cells [3]; drug 200 nM
  CCW: counter-clockwise alignment: 0
  CW: clockwise alignment: 57
  N/S: not significantly biased to CW or CCW: 7
C2C12 cells [3]; drug 500 nM
  CCW: counter-clockwise alignment: 0
  CW: clockwise alignment: 1
  N/S: not significantly biased to CW or CCW: 10
C2C12 cells [3]; low concentrations of the actin treadmilling inhibitors
  effect on chirality of C2C12 cells: reversed the chirality of C2C12 cells from CCW into CW
